Source: patent US20250163104A1, “MACROCYCLIC IMMUNOMODULATORS” (priority 2021, published 2025)
Where a SMILES comes first, the peptide text is derived from it. Bridges are numbered along the chain shown (N, C = ends). [ ]: non-standard residue; d: D form. Phe(4-NO2) = N[C@@H](Cc1ccc([N+](=O)[O-])cc1)C(=O)O; Phe(4-CF3) = N[C@@H](Cc1ccc(C(F)(F)F)cc1)C(=O)O; Phe(4-tBu) = CC(C)(C)c1ccc(C[C@H](N)C(=O)O)cc1; Bip = N[C@@H](Cc1ccc(-c2ccccc2)cc1)C(=O)O; Phe(3-Cl) = N[C@@H](Cc1cccc(Cl)c1)C(=O)O; Phe(4-CN) = N#Cc1ccc(C[C@H](N)C(=O)O)cc1; Phe(4-Cl) = N[C@@H](Cc1ccc(Cl)cc1)C(=O)O; Phe(4-NH2) = Nc1ccc(C[C@H](N)C(=O)O)cc1; Phe(3-Me) = Cc1cccc(C[C@H](N)C(=O)O)c1; Phe(4-F) = N[C@@H](Cc1ccc(F)cc1)C(=O)O; Phe(4-Me) = Cc1ccc(C[C@H](N)C(=O)O)cc1; Cha = N[C@@H](CC1CCCCC1)C(=O)O; Cit = NC(=O)NCCC[C@H](N)C(=O)O; Orn = NCCC[C@H](N)C(=O)O; Dab = NCC[C@H](N)C(=O)O; Dap = NC[C@H](N)C(=O)O

target: T1, human PD-1 / PD-L1-Ig binding on Jurkat cell line over-expressing human PD-1 (Jurkat-PD-1) (Homo sapiens, UniProt Q15116); assay: Jurkat-PD-1 Cell Binding High-Content Screening Assay (CBA); format: cell-based; details: Jurkat-PD-1 cells, PE-labeled PD-L1-Ig 20 nM final; read-out: Jurkat HPD1_PDL1 IC50
T1 construct: expressed in transfected cells; host or cells: Jurkat
Summary of the method: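 Jurkat-hPD-1 cells in DMEM with 10% fetal calf serum receive test compound and are held at 37° C for 2 h. PE-labeled PD-L1-Ig is added at 20 nM final and left for 1 hour. Cells are then fixed and Hoechst-stained, and binding is measured by imaging.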

T1 sequence (Q15116 25-288): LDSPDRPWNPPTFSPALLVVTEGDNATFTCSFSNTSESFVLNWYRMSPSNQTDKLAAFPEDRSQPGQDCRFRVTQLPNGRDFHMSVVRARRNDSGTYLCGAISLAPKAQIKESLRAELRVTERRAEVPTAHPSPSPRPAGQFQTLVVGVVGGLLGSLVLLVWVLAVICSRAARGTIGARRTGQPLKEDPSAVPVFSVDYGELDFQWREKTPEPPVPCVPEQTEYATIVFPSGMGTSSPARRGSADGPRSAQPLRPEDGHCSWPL

Row | SMILES | IC50
1 | CC(C)C[C@H]1NC(=O)[C@H](CCCN)NC(=O)[C@H](CCCNC(N)=O)NC(=O)[C@H](Cc2ccc(-c3ccccc3)cc2)NC(=O)[C@H](C(C)C)NC(=O)[C@H](Cc2c[nH]c3ccccc23)NC(=O)[C@H](CC(=O)O)NC(=O)[C@H](Cc2ccc(F)cc2)NC(=O)[C@H](CN)NC(=O)CSC[C@@H](C(=O)N[C@@H](C)C(N)=O)NC(=O)[C@H]([C@@H](C)O)NC(=O)[C@H](C(C)C)NC(=O)[C@H](CC2CCCCC2)NC(=O)[C@H](CCN)NC1=O [Compound 2103] ({CH2CO}-[Dap][Phe(4-F)]DWV[Bip][Cit][Orn][dL][Dab][Cha]VTCA-NH2; thioether N-14) | 15.9 nM
2 | CC(C)C[C@H]1NC(=O)[C@H](CCCN)NC(=O)[C@H](CCCNC(N)=O)NC(=O)[C@H](Cc2ccc(-c3ccccc3)cc2)NC(=O)[C@H](C(C)C)NC(=O)[C@H](Cc2c[nH]c3ccccc23)NC(=O)[C@H](CC(=O)O)NC(=O)[C@H](CCc2ccncc2)NC(=O)[C@H](CN)NC(=O)CSC[C@@H](C(=O)N[C@@H](C)C(N)=O)NC(=O)[C@H]([C@@H](C)O)NC(=O)[C@H](C(C)C)NC(=O)[C@H](CC2CCCCC2)NC(=O)[C@H](CCN)NC1=O [Compound 2104] | 18.2 nM
3 | Cc1ccc(C[C@@H]2NC(=O)[C@H](CN)NC(=O)CSC[C@@H](C(=O)N[C@@H](C)C(N)=O)NC(=O)[C@H]([C@@H](C)O)NC(=O)[C@H](C(C)C)NC(=O)[C@H](CC3CCCCC3)NC(=O)[C@H](CCN)NC(=O)[C@@H](CC(C)C)NC(=O)[C@H](CCCN)NC(=O)[C@H](CCCNC(N)=O)NC(=O)[C@H](Cc3ccc(-c4ccccc4)cc3)NC(=O)[C@H](C(C)C)NC(=O)[C@H](Cc3c[nH]c4ccccc34)NC(=O)[C@H](CC(=O)O)NC2=O)cc1 [Compound 2108] ({CH2CO}-[Dap][Phe(4-Me)]DWV[Bip][Cit][Orn][dL][Dab][Cha]VTCA-NH2; thioether N-14) | 19.9 nM
4 | CC(C)C[C@H]1NC(=O)[C@H](CCCN)NC(=O)[C@H](CCCNC(N)=O)NC(=O)[C@H](Cc2ccc(-c3ccccc3)cc2)NC(=O)[C@H](C(C)C)NC(=O)[C@H](Cc2c[nH]c3ccccc23)NC(=O)[C@H](CC(=O)O)NC(=O)[C@H](Cc2cccc(Cl)c2)NC(=O)[C@H](CN)NC(=O)CSC[C@@H](C(=O)N[C@@H](C)C(N)=O)NC(=O)[C@H]([C@@H](C)O)NC(=O)[C@H](C(C)C)NC(=O)[C@H](CC2CCCCC2)NC(=O)[C@H](CCN)NC1=O [Compound 2111] ({CH2CO}-[Dap][Phe(3-Cl)]DWV[Bip][Cit][Orn][dL][Dab][Cha]VTCA-NH2; thioether N-14) | 33 nM
5 | COc1ccc(C[C@@H]2NC(=O)[C@H](CN)NC(=O)CSC[C@@H](C(=O)N[C@@H](C)C(N)=O)NC(=O)[C@H]([C@@H](C)O)NC(=O)[C@H](C(C)C)NC(=O)[C@H](CC3CCCCC3)NC(=O)[C@H](CCN)NC(=O)[C@@H](CC(C)C)NC(=O)[C@H](CCCN)NC(=O)[C@H](CCCNC(N)=O)NC(=O)[C@H](Cc3ccc(-c4ccccc4)cc3)NC(=O)[C@H](C(C)C)NC(=O)[C@H](Cc3c[nH]c4ccccc34)NC(=O)[C@H](CC(=O)O)NC2=O)cc1 [Compound 2112] | 18 nM
6 | CC(C)C[C@H]1NC(=O)[C@H](CCCN)NC(=O)[C@H](CCCNC(N)=O)NC(=O)[C@H](Cc2ccc(-c3ccccc3)cc2)NC(=O)[C@H](C(C)C)NC(=O)[C@H](Cc2c[nH]c3ccccc23)NC(=O)[C@H](CC(=O)O)NC(=O)[C@H](Cc2ccc(O)c([N+](=O)[O-])c2)NC(=O)[C@H](CN)NC(=O)CSC[C@@H](C(=O)N[C@@H](C)C(N)=O)NC(=O)[C@H]([C@@H](C)O)NC(=O)[C@H](C(C)C)NC(=O)[C@H](CC2CCCCC2)NC(=O)[C@H](CCN)NC1=O [Compound 2113] | 14.9 nM
7 | CC(C)C[C@H]1NC(=O)[C@H](CCCN)NC(=O)[C@H](CCCNC(N)=O)NC(=O)[C@H](Cc2ccc(-c3ccccc3)cc2)NC(=O)[C@H](C(C)C)NC(=O)[C@H](Cc2c[nH]c3ccccc23)NC(=O)[C@H](CC(=O)O)NC(=O)[C@H](Cc2ccc3ncccc3c2)NC(=O)[C@H](CN)NC(=O)CSC[C@@H](C(=O)N[C@@H](C)C(N)=O)NC(=O)[C@H]([C@@H](C)O)NC(=O)[C@H](C(C)C)NC(=O)[C@H](CC2CCCCC2)NC(=O)[C@H](CCN)NC1=O [Compound 2116] | 8.9 nM

Now from value to compound:

Row | IC50 | SMILES
8 | 6.6 nM | CC(C)C[C@H]1NC(=O)[C@H](CCCN)NC(=O)[C@H](CCCNC(N)=O)NC(=O)[C@H](Cc2ccc(-c3ccccc3)cc2)NC(=O)[C@H](C(C)C)NC(=O)[C@H](Cc2c[nH]c3ccccc23)NC(=O)[C@H](CC(=O)O)NC(=O)[C@H](Cc2ccc(C#N)cc2)NC(=O)[C@H](CN)NC(=O)CSC[C@@H](C(=O)N[C@@H](C)C(N)=O)NC(=O)[C@H]([C@@H](C)O)NC(=O)[C@H](C(C)C)NC(=O)[C@H](CC2CCCCC2)NC(=O)[C@H](CCN)NC1=O [Compound 2101] ({CH2CO}-[Dap][Phe(4-CN)]DWV[Bip][Cit][Orn][dL][Dab][Cha]VTCA-NH2; thioether N-14)
9 | 45.6 nM | CC(C)C[C@H]1NC(=O)[C@H](CCCN)NC(=O)[C@H](CCCNC(N)=O)NC(=O)[C@H](Cc2ccc(-c3ccccc3)cc2)NC(=O)[C@H](C(C)C)NC(=O)[C@H](Cc2c[nH]c3ccccc23)NC(=O)[C@H](CC(=O)O)NC(=O)[C@H](Cc2ccc(Cl)cc2)NC(=O)[C@H](CN)NC(=O)CSC[C@@H](C(=O)N[C@@H](C)C(N)=O)NC(=O)[C@H]([C@@H](C)O)NC(=O)[C@H](C(C)C)NC(=O)[C@H](CC2CCCCC2)NC(=O)[C@H](CCN)NC1=O [Compound 2102] ({CH2CO}-[Dap][Phe(4-Cl)]DWV[Bip][Cit][Orn][dL][Dab][Cha]VTCA-NH2; thioether N-14)
10 | 6.8 nM | CC(C)C[C@H]1NC(=O)[C@H](CCCN)NC(=O)[C@H](CCCNC(N)=O)NC(=O)[C@H](Cc2ccc(-c3ccccc3)cc2)NC(=O)[C@H](C(C)C)NC(=O)[C@H](Cc2c[nH]c3ccccc23)NC(=O)[C@H](CC(=O)O)NC(=O)[C@H](Cc2ccc(N)cc2)NC(=O)[C@H](CN)NC(=O)CSC[C@@H](C(=O)N[C@@H](C)C(N)=O)NC(=O)[C@H]([C@@H](C)O)NC(=O)[C@H](C(C)C)NC(=O)[C@H](CC2CCCCC2)NC(=O)[C@H](CCN)NC1=O [Compound 2105] ({CH2CO}-[Dap][Phe(4-NH2)]DWV[Bip][Cit][Orn][dL][Dab][Cha]VTCA-NH2; thioether N-14)
11 | 93.4 nM | CC(C)C[C@H]1NC(=O)[C@H](CCCN)NC(=O)[C@H](CCCNC(N)=O)NC(=O)[C@H](Cc2ccc(-c3ccccc3)cc2)NC(=O)[C@H](C(C)C)NC(=O)[C@H](Cc2c[nH]c3ccccc23)NC(=O)[C@H](CC(=O)O)NC(=O)[C@H](Cc2ccc(C(C)(C)C)cc2)NC(=O)[C@H](CN)NC(=O)CSC[C@@H](C(=O)N[C@@H](C)C(N)=O)NC(=O)[C@H]([C@@H](C)O)NC(=O)[C@H](C(C)C)NC(=O)[C@H](CC2CCCCC2)NC(=O)[C@H](CCN)NC1=O [Compound 2106] ({CH2CO}-[Dap][Phe(4-tBu)]DWV[Bip][Cit][Orn][dL][Dab][Cha]VTCA-NH2; thioether N-14)
12 | 44.7 nM | CC(C)C[C@H]1NC(=O)[C@H](CCCN)NC(=O)[C@H](CCCNC(N)=O)NC(=O)[C@H](Cc2ccc(-c3ccccc3)cc2)NC(=O)[C@H](C(C)C)NC(=O)[C@H](Cc2c[nH]c3ccccc23)NC(=O)[C@H](CC(=O)O)NC(=O)[C@H](Cc2ccc(C(F)(F)F)cc2)NC(=O)[C@H](CN)NC(=O)CSC[C@@H](C(=O)N[C@@H](C)C(N)=O)NC(=O)[C@H]([C@@H](C)O)NC(=O)[C@H](C(C)C)NC(=O)[C@H](CC2CCCCC2)NC(=O)[C@H](CCN)NC1=O [Compound 2107] ({CH2CO}-[Dap][Phe(4-CF3)]DWV[Bip][Cit][Orn][dL][Dab][Cha]VTCA-NH2; thioether N-14)
13 | 38.5 nM | Cc1cccc(C[C@@H]2NC(=O)[C@H](CN)NC(=O)CSC[C@@H](C(=O)N[C@@H](C)C(N)=O)NC(=O)[C@H]([C@@H](C)O)NC(=O)[C@H](C(C)C)NC(=O)[C@H](CC3CCCCC3)NC(=O)[C@H](CCN)NC(=O)[C@@H](CC(C)C)NC(=O)[C@H](CCCN)NC(=O)[C@H](CCCNC(N)=O)NC(=O)[C@H](Cc3ccc(-c4ccccc4)cc3)NC(=O)[C@H](C(C)C)NC(=O)[C@H](Cc3c[nH]c4ccccc34)NC(=O)[C@H](CC(=O)O)NC2=O)c1 [Compound 2109] ({CH2CO}-[Dap][Phe(3-Me)]DWV[Bip][Cit][Orn][dL][Dab][Cha]VTCA-NH2; thioether N-14)
14 | 18.2 nM | CC(C)C[C@H]1NC(=O)[C@H](CCCN)NC(=O)[C@H](CCCNC(N)=O)NC(=O)[C@H](Cc2ccc(-c3ccccc3)cc2)NC(=O)[C@H](C(C)C)NC(=O)[C@H](Cc2c[nH]c3ccccc23)NC(=O)[C@H](CC(=O)O)NC(=O)[C@H](Cc2ccc([N+](=O)[O-])cc2)NC(=O)[C@H](CN)NC(=O)CSC[C@@H](C(=O)N[C@@H](C)C(N)=O)NC(=O)[C@H]([C@@H](C)O)NC(=O)[C@H](C(C)C)NC(=O)[C@H](CC2CCCCC2)NC(=O)[C@H](CCN)NC1=O [Compound 2110] ({CH2CO}-[Dap][Phe(4-NO2)]DWV[Bip][Cit][Orn][dL][Dab][Cha]VTCA-NH2; thioether N-14)
15 | 68.9 nM | CC(C)C[C@H]1NC(=O)[C@H](CCCN)NC(=O)[C@H](CCCNC(N)=O)NC(=O)[C@H](Cc2ccc(-c3ccccc3)cc2)NC(=O)[C@H](C(C)C)NC(=O)[C@H](Cc2c[nH]c3ccccc23)NC(=O)[C@H](CC(=O)O)NC(=O)[C@H](Cc2csc3ccccc23)NC(=O)[C@H](CN)NC(=O)CSC[C@@H](C(=O)N[C@@H](C)C(N)=O)NC(=O)[C@H]([C@@H](C)O)NC(=O)[C@H](C(C)C)NC(=O)[C@H](CC2CCCCC2)NC(=O)[C@H](CCN)NC1=O [Compound 2114]
16 | 53.4 nM | CC(C)C[C@H]1NC(=O)[C@H](CCCN)NC(=O)[C@H](CCCNC(N)=O)NC(=O)[C@H](Cc2ccc(-c3ccccc3)cc2)NC(=O)[C@H](C(C)C)NC(=O)[C@H](Cc2c[nH]c3ccccc23)NC(=O)[C@H](CC(=O)O)NC(=O)[C@H](Cc2cccc3ccccc23)NC(=O)[C@H](CN)NC(=O)CSC[C@@H](C(=O)N[C@@H](C)C(N)=O)NC(=O)[C@H]([C@@H](C)O)NC(=O)[C@H](C(C)C)NC(=O)[C@H](CC2CCCCC2)NC(=O)[C@H](CCN)NC1=O [Compound 2115]
